Assay results reported in US6680052B1, “Methods of inhibiting tumor growth using adenosine receptor activated cells” (Endacea, Inc., priority 1999, dated 2004).

Tests used:
[1] = test system: human metastatic cell lines; settings: administered directly to the cell lines, in vitro; cited from earlier work
[2] = test system: pulmonary arterial endothelial cells; assay: Thromboxane release from pulmonary arterial endothelial cells; assay type: cell-based
Source text: DPCPX and ^125I-BW A844U. These findings indicate that LPS binds to and activates Al adenosine receptors on pulmonary artery endothelial cells. Also, A1 adenosine receptor antagonists are able to block such endotoxin-induced lung injury, supporting that activation of A1 adenosine receptors is important in endotoxin-induced acute lung injury. Neely, Jin and Keith, Am J. Physiol., Lung Cell Mol. Physiol. , 268:L1036, 1995.
The methods of the present invention also utilize hypoxia and reoxygenation conditions to increase A1 adenosine receptor activation and signal transduction pathways which, following activation, result in the release of cytotoxic substances. As noted above, following ischemia and reperfusion, activation of A1 adenosine receptors present on pulmonary arterial endothelial cells causes a cytotoxic effect (Neely and Keith (1995)), and the release of a cytotoxic substance, thromboxane, has been found by the present inventor to be blocked by an A1 adenosine receptor antagonist (DPCPX). In heart tissue adenosine, A1 adenosine receptor agonists, or a brief period of preconditioning ischemia attenuates ischemia-reperfusion (I-R) injury. In the lung, thromboxane is released during ischemia and is a mediator of I-R injury. Moreover, ischemia and reperfusion enhance the capacity of LPS to produce cytotoxicity and damage organs. […]

[3] = biological target: T1, A1 adenosine receptors (Homo sapiens, UniProt P30542); assay: Endotoxin induced inhibition of adenylate cyclase in pulmonary arterial endothelial cells; assay type: cell-based
T1 construct: endogenous in cells; host or cells: pulmonary arterial endothelial cells
T1 sequence (P30542 1-326): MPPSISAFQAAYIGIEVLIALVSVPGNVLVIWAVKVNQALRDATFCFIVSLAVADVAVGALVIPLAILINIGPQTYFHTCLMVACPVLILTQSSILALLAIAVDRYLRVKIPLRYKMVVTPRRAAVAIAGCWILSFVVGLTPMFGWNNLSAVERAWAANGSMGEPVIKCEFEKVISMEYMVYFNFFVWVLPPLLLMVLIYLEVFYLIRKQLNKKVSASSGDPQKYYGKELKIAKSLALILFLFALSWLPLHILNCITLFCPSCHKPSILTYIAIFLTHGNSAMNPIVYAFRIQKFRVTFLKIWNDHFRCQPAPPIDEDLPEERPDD
Source text: DPCPX and ^125I-BW A844U. […] Neely, Jin and Keith, Am J. Physiol., Lung Cell Mol. Physiol. , 268:L1036, 1995.

[4] = test system: pulmonary artery endothelial cells; assay: Phospholipase A2 increase following hypoxia/anoxia of pulmonary artery endothelial cells in vitro; assay type: cell-based
Description: Following ischemia and reperfusion, activation of A1 adenosine receptors present on pulmonary arterial endothelial cells results in a cytotoxic effect. In heart tissue adenosine, A1 adenosine receptor agonists, or a brief period (from approximately 5 to about 15 minutes) of preconditioning ischemia attenuates ischemia-reperfusion (I-R) injury. See, […] Keith, Am. J. Physiol. 268:[…] (1995). In the lung, thromboxane is released during ischemia and is a mediator of I-R injury. Adenosine produces vasoconstriction in the pulmonary vascular bed by acting on A1 receptors to induce the release of thromboxane. These vasoconstrictor responses in endothelial cells are desensitized by prior treatment with low doses of A1 receptor agonists. It was hypothesized that during preconditioning ischemia, adenosine attenuates ischemia-reperfusion injury of the heart by activation and subsequent desensitization of A1 adenosine receptors. Preconditioning ischemia attenuates ischemia-reperfusion (I-R) injury of both lung and heart. […]

[5] = test system: monocytes; settings: cited from earlier work
[6] = test system: human epidermoid carcinoma cells; settings: low versus higher concentrations; cited from earlier work

CCCn1c(=O)c2[nH]c(-c3ccc(Cl)cc3N)nc2n(CCC)c1=O [PACPX, 1,3-dipropyl-8-(2-amino-4-chloropheny)-xanthine]
effect on cell growth [1]: inhibitory effect

CCNC(=O)[C@H]1O[C@@H](n2cnc3c(N)ncnc32)[C@H](O)[C@@H]1O [NECA, 5′-(N-ethyl)-carboxamidoadenosine]
effect on cell growth [1]: inhibitory effect

CCCn1c(=O)c2[nH]c(C3CCCC3)nc2n(CCC)c1=O [DPCPX, 1,3 dipropyl 8 cyclopentylxanthine]
release of thromboxane ([2]; following ischemia and reperfusion, A1 adenosine receptor activation): blocked
endotoxin induced thromboxane release ([2]; pulmonary arterial endothelial cells): blocked
endotoxin induced inhibition of adenylate cyclase [3]: blocked
increase in phospholipase A2 (PLA2) [4]: inhibits

[Na+].[Na+].[Na+].[O]=[V]([O-])([O-])[O-] [vanadate, sodium orthovanadate]
LPS induced production of TNFα [5]: enhanced

Nc1ncnc2c1ncn2[C@@H]1O[C@H](CO)[C@@H](O)[C@H]1O [adenosine]
colony formation [6]: biphasic response
